Measured values as given in patent US11214803B2, “Modulators of YAP1 expression” (Ionis Pharmaceuticals, Inc., priority 2019, dated 2022).

How the values were obtained:
Yap1 mRNA [1] = experiment: Inhibition of human Yap1 mRNA in epidermoid carcinoma A-431 xenograft tumors (Example 27); assay type: in vivo; settings: A-431 xenografts in NCr-Foxn1nu mice, 6-8 hours post final dose, relative to PBS
How it was run: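 Female NCr-Foxn1nu mice carried subcutaneous A-431 xenografts (5 million cells in 30% matrigel), grouped at about 40 mm^3 (n=4). Oligonucleotides were given at 25 or 50 mg/kg daily for four days (5 doses), with tumors harvested 6-8 h after the last dose. Yap1 mRNA was measured by RT-qPCR, normalized to actin-beta and expressed as % of PBS-treated control.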

[2] = Cynomolgus monkey tolerability, hematology (Example 34); assay type: in vivo, cynomolgus monkeys
How it was run: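 On day 44, blood from oligonucleotide-treated cynomolgus monkeys was collected into K2-EDTA. An automated analyzer measured red cell indices, reticulocytes, platelets and MPV, and total and differential white cell counts.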

[3] = rat, in vivo, sc, 50 mg/kg
Protocol: Male Sprague-Dawley rats were maintained on a 12-hour light/dark cycle and fed ad libitum with Purina normal rat chow. Groups of 4 Sprague-Dawley rats each were weekly injected subcutaneously with 50 mg/kg of Ionis oligonucleotide for 6 weeks (total 7 doses). Forty-eight hours after the last dose, the rats were euthanized; and organs, urine and plasma were harvested for further analysis.
To evaluate the effect of Ionis oligonucleotides on kidney function, urinary levels of total protein and creatinine were measured using an automated clinical chemistry analyzer (Hitachi Olympus AU400c, Melville, N.Y.).

[4] = Cynomolgus monkey tolerability, kidney and liver function markers (Example 34); settings: cynomolgus monkeys, 35 mg/kg subcutaneously, day 44
Yap1 mRNA [5] = experiment: Yap1 mRNA in SCC25 cells, RNA analysis (Example 25); assay type: cell-based, human; settings: free uptake, 48 hours, RTS4814, normalized to actin-beta
How it was run: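 SCC25 squamous carcinoma cells at 5,000 cells/well dosed by free uptake with oligonucleotides at graded concentrations; non-complementary 3-10-3 cET gapmer as control. After ~48 h, Yap1 mRNA measured by RT-qPCR (RTS4814), normalized to actin-beta (RTS5002). Values are % of untreated control (% UTC).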

[6] = Tolerability in Sprague-Dawley rats, plasma chemistry markers (Example 22); assay type: in vivo; settings: male Sprague-Dawley rats, 50 mg/kg s.c. weekly for 6 weeks (7 doses), 48 hours after last dose
Protocol: Sprague-Dawley rats are a multipurpose model used for safety and efficacy evaluations. The rats were treated with Ionis modified oligonucleotides from the studies described in the Examples above and evaluated for changes in the levels of various plasma chemistry markers.

Yap1 mRNA [7] = experiment: Dose-dependent inhibition of human Yap1 in SNU-449 cells (Example 9, RTS36584); assay type: cell-based; settings: free uptake; for % UTC (Yap1 mRNA): approximately 48 hours
How it was run: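 Read-out was Yap1 mRNA (primer-probe RTS36584) normalised to total RNA by RIBOGREEN, given as % of untreated cells, with IC50 fitted by linear regression of log/linear data. Oligonucleotides were dosed by free uptake to SNU-449 cells, 10,000/well, for ~48 h.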

[8] = Cynomolgus monkey tolerability, pro-inflammatory proteins analysis, Complement C3 and CRP (Example 34); assay type: in vivo; settings: cynomolgus monkeys, 35 mg/kg subcutaneously
How it was run: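 Inflammatory effects of oligonucleotides in cynomolgus monkeys were assessed using blood samples taken after an overnight fast. About 0.8 mL of blood per animal went into tubes without anticoagulant so serum could be separated. Complement C3 was measured on a Toshiba 120 FR NEO chemistry analyzer. C-Reactive Protein was measured alongside the liver-function clinical chemistry parameters.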

[9] = cynomolgus monkey, in vivo, sc, 35 mg/kg

1198605 (GTAATATTGCAATCTG; modified gapmer, further chemistry not given here) [compound 1198605]
Yap1 mRNA in tumors, % control (Yap1 mRNA [1]; 25 mpk daily (5 doses)): 32 % control
Yap1 mRNA in tumors, % control (Yap1 mRNA [1]; 50 mpk daily (5 doses)): 30 % control
BAS [2, 9]: 0.4%
EOS [2, 9]: 0.8%
HCT [2, 9]: 46%
HGB [2, 9]: 13 g/dL
LUC [2, 9]: 0.5%
LYM [2, 9]: 51%
MCH [2, 9]: 22 pg
MCHC [2, 9]: 29 g/dL
MCV [2, 9]: 75 fL
MON [2, 9]: 2.8%
NEU [2, 9]: 44%
PLT [2, 9]: 385 10^3/μL
RBC [2, 9]: 6.1e+06 µL⁻¹
RCDW [2, 9]: 13%
Retic [2, 9]: 1.1%
WBC [2, 9]: 10500 µL⁻¹
MPV ([2]; cynomolgus monkeys, 35 mg/kg subcutaneously, day 44): 8.1 fL
URINE P/C ratio (total protein to creatinine ratio) [3]: 28
ALB [4]: 4.0 g/dL
ALP [4]: 1445 IU/L
ALT [4]: 40 IU/L
AST [4]: 58 IU/L
BUN [4]: 22 mg/dL
CREA [4]: 0.8 mg/dL
GGT [4]: 85 IU/L
GLO [4]: 2.7 g/dL
GLU [4]: 69 mg/dL
HDL [4]: 115 mg/dL
LDL [4]: 57 mg/dL
TBIL [4]: 0.2 mg/dL
TG [4]: 25 mg/dL
TP [4]: 6.7 g/dL
Yap1 mRNA, % UTC (Yap1 mRNA [5]; 0.04 μM): 48 % UTC
Yap1 mRNA, % UTC (Yap1 mRNA [5]; 0.2 μM): 23 % UTC
Yap1 mRNA, % UTC (Yap1 mRNA [5]; 1 μM): 10 % UTC
Yap1 mRNA, % UTC (Yap1 mRNA [5]; 5 μM): 5 % UTC
ALT [6]: 46 U/L
AST [6]: 76 U/L
BUN [6]: 18 mg/dL
TBIL [6]: 0.33 mg/dL
% UTC (Yap1 mRNA) (Yap1 mRNA [7]; 31.3 nM): 57 % UTC
% UTC (Yap1 mRNA) (Yap1 mRNA [7]; 125.0 nM): 27 % UTC
% UTC (Yap1 mRNA) (Yap1 mRNA [7]; 500.0 nM): 7 % UTC
% UTC (Yap1 mRNA) (Yap1 mRNA [7]; 2000.00 nM): 1 % UTC
IC50 (Yap1 mRNA [7]; linear regression on a log/linear plot): 30 nM
Complement C3 ([8]; Day 42 (pre-dose)): 105 mg/dL
Complement C3 ([8]; day 42 (24 hr post-dose)): 95 mg/dL
CRP ([8]; day 44): 4.2 mg/L
